From PubChem BioAssay (NCI) come the findings set out here.

What all share (experiment): inhibition of tumour cell growth, NCI panel, 48 h
Test [1] concerns HOP-92 NSCLC.
Test [2] deals with SK-MEL-2 melanoma.
Test [3] deals with U251 CNS.
In test [4] the test system is RPMI-8226 leukemia.
Test [5] relates to LOX IMVI melanoma.
Test [6] relates to HS 578T breast.
The test system of test [7] is MDA-N.
In test [8] the test system is COLO 205 colon.
Test [9] relates to UO-31 renal.
The subject of test [10] is RXF 393 renal.
Test [11] deals with PC-3 prostate.
Test [12] concerns SF-268 CNS.
Test [13] concerns TK-10 renal.
In test [14] the test system is SF-539 CNS.
In test [15] the test system is HOP-62 NSCLC.
In test [16] the test system is NCI-H23 lung.
Test [17] relates to MALME-3M melanoma.
The test system of test [18] is NCI/ADR-RES ovarian.
The test system of test [19] is OVCAR-3 ovarian.

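Tested at 5 concentrations; 48 h exposure; 96-well plates; endpoints linearly interpolated, else capped at highest concentration. TGI: total growth inhibition.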

For `CCN(CCCl)c1cc(CN(C)C)cc(NC(=O)c2cc(C(=O)Nc3cc(CN(C)C)cc(N(CC)CCCl)c3)n(C)n2)c1`, the TGI in test [1] was 3.38 µM; in [2], 3.3 µM; in [3], 0.387 µM; in test [4], over 100 µM; in [5], 0.26 µM; in test [6], 1.52 µM. Besides, the TGI in [7] was determined as 2.55 µM; in test [8] it was 2.05 µM; in test [9], 7.42 µM; in [10], 2.08 µM; in test [11], 0.492 µM; in test [12], 1.56 µM. In addition, the TGI in test [13] worked out at 6.17 µM; in test [14], 1.63 µM; in test [15], 1.21 µM; in test [16], 3.04 µM; in test [17], 2.86 µM; in [18], 32.3 µM.
Consider `Cn1c(=O)n2n(c1=O)C(S(=O)c1ccccc1)C2` (configuration not stated), for which the TGI in test [1], in [2], in test [3], in [4], in [5] and in test [6] was over 100 µM throughout. Also, the TGI in test [7], in [8], in [9], in test [10], in test [11] and in [19] was over 100 µM each time. Moreover, the TGI in test [12], in test [13], in test [14], in test [15], in test [16] and in test [18] was over 100 µM each time.
In the case of `N#C[C@H](C(=O)c1ccccc1F)c1nc2ccccc2[nH]1`, the TGI in [1], in test [2], in test [3], in test [4], in [5] and in test [6] was over 100 µM each time. For the same compound, the TGI in [7], in test [8], in test [9], in [10], in test [11] and in test [19] was over 100 µM in each case. Also, the TGI in test [12], in test [13], in [14], in [15], in test [16] and in test [18] was over 100 µM in each case.
`NC(N)=N/N=C\c1c(-c2ccccc2)nc2sccn12`: the TGI in test [1] was found to be 27.4 µM; in test [2], 28.6 µM; in [3], 28.5 µM; in [4] it was 49 µM; in [5] it was 30.1 µM; in [6], 34.5 µM. Further, the TGI in [7] amounted to 27.1 µM; in test [8], 24.6 µM; in test [9] it was 31.6 µM; in test [10], 26.3 µM; in test [11], 28.5 µM; in test [12], 29.9 µM. The TGI in [13] is 31.2 µM; in test [14] it was 30.2 µM; in test [15] it was 29.1 µM; in test [16], 25.4 µM; in test [17], 30 µM; in test [18] it was 34.9 µM.
Consider `CC(=O)OC1CC[C@@]2(C)C(=CC[C@@H]3[C@@H]2CC[C@]2(C)C(OC(C)=O)[C@H](n4ccnc4)C[C@@H]32)C1` (some centres not stated), for which the TGI is over 100 µM in test [1]; 34.2 µM in test [2]; over 100 µM in [3]; 55.2 µM in test [4]; 37.7 µM in test [5]; over 100 µM in test [6]. For the same compound, the TGI in [7] is 46.6 µM; in test [8] it was 34.4 µM; in test [9], over 100 µM; in [10] it was over 100 µM; in test [11], 39.5 µM; in test [12], over 100 µM. The TGI in test [13] is over 100 µM; in [14], 29.8 µM; in [16], over 100 µM; in test [17] it was 28.3 µM; in test [18], over 100 µM.
`COC(=O)C1(Cc2ccccc2)Cc2c(C)ccc(C)c2C1=O` (configuration not stated): the TGI in [1] was 54.3 µM; in test [3], over 100 µM; in test [4], 75.4 µM; in test [5], 34.6 µM; in [6] it was 62 µM; in test [7], over 100 µM. Besides, the TGI in [8] was 25.4 µM; in test [9], 38 µM; in test [10], 83.1 µM; in test [11] it was 78.2 µM; in test [19], 85.1 µM; in test [12] it was over 100 µM. In addition, the TGI was over 100 µM in test [13]; over 100 µM in [14]; over 100 µM in test [15]; over 100 µM in [16]; 50.3 µM in test [17]; over 100 µM in test [18].
With `O=C1NC2=NN=C(c3ccc(Br)cc3)CN2NC12c1ccccc1-c1ccccc12`, the TGI in [1], in test [2], in [3], in test [5], in test [6] and in test [7] was over 100 µM in each case. For the same compound, the TGI in test [8], in test [9], in test [10], in test [11], in [19] and in test [12] was over 100 µM each time. Besides, the TGI in [13], in test [14], in test [15], in test [16], in test [17] and in test [18] was over 100 µM each time.
As for `O=C1CC(=O)NC(=NN2C(=O)/C(=C/c3ccc(Cl)cc3)N=C2c2ccccc2)N1`, the TGI worked out at 26.1 µM in test [1]; 31.1 µM in test [2]; 33 µM in [3]; 58.2 µM in test [4]; 30.6 µM in test [6]; 30.2 µM in test [7]. In addition, the TGI stood at 31.5 µM in test [8]; 31.7 µM in [9]; 30.1 µM in test [10]; 28.2 µM in [11]; 32.6 µM in test [19]; 34.2 µM in test [12]. Further, the TGI stood at 43.2 µM in test [13]; 32.4 µM in [14]; 30.2 µM in test [15]; 31.5 µM in test [16]; 33.4 µM in test [17]; 31.8 µM in test [18].
As to `CCN(CC)Cc1ccc(Nc2c3ccccc3nc3ccccc23)cc1`, the TGI in test [1] is 11.9 µM; in [2], 7.27 µM; in test [3], 6.68 µM; in [5], 3.3 µM; in test [6], 21.8 µM; in [7], 3.23 µM. Besides, the TGI in [8] is 5.78 µM; in test [9] it was 5.22 µM; in test [10], 3.96 µM; in [11], 3.68 µM; in test [19] it was 12.8 µM; in test [12], 9.38 µM. For the same compound, the TGI in [13] was 18.8 µM; in test [14] it was 3.45 µM; in [15], 6.84 µM; in test [16] it was 4.52 µM; in [17], 3.61 µM; in [18] it was 22.4 µM.
`COC1(c2ccccc2)NC(=S)NN=C1c1ccccc1` (configuration not stated): the TGI in test [1] was over 100 µM; in test [2], 75.8 µM; in test [3] it was 46.6 µM; in test [4] it was over 100 µM; in [5], over 100 µM; in test [6], over 100 µM. For the same compound, the TGI in [7] is 45 µM; in test [8], 49.8 µM; in [9], over 100 µM; in test [10], over 100 µM; in [11], over 100 µM; in [19] it was 84.6 µM. Moreover, the TGI in [12] is over 100 µM; in [13], over 100 µM; in test [15], over 100 µM; in test [16] it was over 100 µM; in [17], over 100 µM; in [18] it was 37.7 µM.
Regarding `CC(=O)O[C@H]1C[C@@H](OC(C)=O)[C@@](C)(O)[C@@H]2[C@@H](OC(C)=O)[C@@]3(O)[C@H](/C=C(/CCl)[C@H]4O[C@H]4[C@@H](OC(C)=O)[C@@]12C)OC(=O)[C@@H]3C`, the TGI in test [1], in test [2], in test [3], in test [4], in test [5] and in test [6] was over 25 µM each time. The TGI in [7], in test [8], in [9], in [10], in test [11] and in test [19] was over 25 µM each time. The TGI in test [12], in test [13], in [15], in [16], in test [17] and in [18] was over 25 µM in each case.
`O=C1Nc2ccccc2C1S(=O)(=O)c1ccccc1` (configuration not stated): the TGI in test [1], in test [2], in test [3], in [4], in [5] and in [6] was over 100 µM throughout. The TGI in [7], in test [8], in test [9], in test [10], in test [11] and in test [19] was over 100 µM throughout. Further, the TGI in test [12], in [13], in test [15], in test [16], in test [17] and in test [18] was over 100 µM each time.
Turning to `O=C(/C=C/c1ccc(Cl)cc1)c1ccc(Cl)s1`, the TGI in test [1] was over 100 µM; in [3], over 100 µM; in test [4], 80.1 µM; in test [5], 26.2 µM; in test [6], over 100 µM; in [7], 90.2 µM. In addition, the TGI is over 100 µM in test [8]; over 100 µM in [9]; 85.8 µM in test [10]; over 100 µM in test [11]; over 100 µM in test [19]; over 100 µM in [12]. The TGI in test [13], in [14], in [15], in test [16], in [17] and in test [18] was over 100 µM throughout.
With `C=CC1(O)CCCC=C1COCc1ccccc1` (configuration not stated), the TGI in [1] is over 100 µM; in [2], over 100 µM; in test [3], over 100 µM; in test [4], 68.3 µM; in [5], 40.7 µM; in [6], over 100 µM. The TGI in [7], in [8], in [9], in [10], in [11] and in [12] was over 100 µM in each case. Also, the TGI in test [13], in test [15], in test [16], in [17] and in [18] was over 100 µM throughout.
Turning to `CON(C)C(=O)C(C)NC(=O)OC(C)(C)C` (configuration not stated), the TGI in [1], in test [3], in test [4], in test [6], in [7] and in test [8] was over 100 µM each time. In addition, the TGI in test [9], in test [10], in test [11], in [19], in [12] and in test [13] was over 100 µM in each case. In addition, the TGI in [14], in test [15], in test [16], in test [17] and in test [18] was over 100 µM in each case.
